Columns and labels:
[1] = Intranasal PK profile in rats, plasma hydrocodone and hydromorphone by LC-MS/MS
[2] = Chemical stability: hydrolysis in 5% NaHCO3; type: physicochemical; settings: 5% NaHCO3, one hour
[3] = Chemical stability: hydrolysis to hydrocodone in 1N HCl; settings: 1 hour
[4] = Water solubility / feasibility of intravenous or intranasal dosing; settings: with regard to intravenous or intranasal dosing at oral equivalent doses
[5] = Oral PK profile in rats, plasma hydrocodone and hydromorphone by LC-MS/MS
[6] = equivalent to 2 mg/kg freebase hydrocodone, FIG. 7
[7] = equivalent to 2 mg/kg freebase hydrocodone, FIG. 8

## COc1ccc2c3c1OC1C(OC(=O)CCCCC(=O)O)=CC[C@H]4[C@@H](C2)N(C)CC[C@]314 (stereo partly drawn) [Adipate-HC]
[1]; [6]
  hydrocodone AUC, higher than Ibu-HC: approximately 170%
  hydrocodone Cmax, higher than Ibu-HC: ~245%
[1]; [7]
  hydromorphone AUC, higher than Ibu-HC: approximately 940%
  hydromorphone Cmax, higher than Ibu-HC: ~1,010%
[2]; ambient (~20° C.)
  initial amount of conjugate hydrolyzed: 3%
[2]; oil bath 100° C.
  initial amount of conjugate hydrolyzed: 100%
[3]; ambient (~20° C.)
  initial amount of conjugate hydrolyzed: 13%
[3]; oil bath 100° C.
  initial amount of conjugate hydrolyzed: 100%
[4]
  water solubility: water-soluble

## COc1ccc2c3c1OC1C(OC(=O)/C=C/c4ccccc4)=CCC4C(C2)N(C)CCC314 (stereo not drawn) [Cinnamate-HC, cinnamate-hydrocodone]
[5]; equivalent to 2 mg/kg freebase hydrocodone, FIG. 9
  hydrocodone plasma concentrations during subsequent elimination compared with Hydrocodone.BT: similar

## COc1ccc2c3c1OC1C(OC(=O)COCC(=O)O)=CC[C@H]4[C@@H](C2)N(C)CC[C@]314 (stereo partly drawn) [Diglycolate-HC]
[4]
  water solubility: water-soluble

## COc1ccc2c3c1O[C@H]1C(=O)CC[C@H]4[C@@H](C2)N(C)CC[C@]314.O=C(O)C(O)C(O)C(=O)O [Hydrocodone.BT, hydrocodone bitartrate]
[1]; Example 6, FIG. 11
  hydrocodone AUC, higher than Ibu-HC: approximately 300%
  hydrocodone Cmax, higher than Ibu-HC: ~525%

## COc1ccc2c3c1OC1C(OC(=O)C(C)c4ccc(CC(C)C)cc4)=CCC4C(C2)N(C)CCC314 (stereo not drawn) [Ibu-HC, ibuprofen-hydrocodone]
[5]; equivalent of 2 mg/kg hydrocodone freebase, FIG. 6
  hydromorphone AUC compared with Diglycolate-HC: similar
[5]; equivalent to 2 mg/kg freebase hydrocodone, FIG. 9 and FIG. 10
  hydrocodone and hydromorphone plasma concentrations compared with unconjugated Hydrocodone.BT: similar
[5]; same dose based on hydrocodone freebase
  AUC and Cmax values (hydrocodone and hydromorphone) compared with Hydrocodone.BT: within the range of bioequivalence
[1]; Example 6, FIG. 11
  hydrocodone plasma concentrations compared with Hydrocodone.BT: significantly lower
[1]; Example 6, FIG. 12
  hydromorphone plasma concentration compared with Hydrocodone.BT: very low plasma concentration
[1]; [6]
  hydrocodone plasma concentrations compared with Adipate-HC: significantly lower
[1]; [7]
  hydromorphone plasma concentration compared with Adipate-HC: very low plasma concentration
[2]; ambient (~20° C.)
  initial amount of conjugate hydrolyzed: 0%
[2]; oil bath 100° C.
  initial amount of conjugate hydrolyzed: 22%
[4]
  water solubility: very low water solubility

## COc1ccc2cc(C(C)C(=O)OC3=CCC4C5Cc6ccc(OC)c7c6C4(CCN5C)C3O7)ccc2c1 (stereo not drawn) [Naproxen-HC, naproxen-hydrocodone]
[2]; ambient (~20° C.)
  initial amount of conjugate hydrolyzed: 0%
[2]; oil bath 100° C.
  initial amount of conjugate hydrolyzed: 8%
[3]; ambient (~20° C.)
  initial amount of conjugate hydrolyzed: 0%
[3]; oil bath 100° C.
  initial amount of conjugate hydrolyzed: 33%

Source: patent publication US20120142720A1, “Phenylethanoic Acid, Phenylpropanoic Acid and Phenylpropenoic Acid Conjugates and Prodrugs of Hydrocodone, Methods of Making and Use Thereof” (KEMPHARM, INC., priority 2009, published 2012)
